{"source": "patent US12544365B2", "about": "“Pharmaceutical combination of an EP4 antagonist and immune checkpoint inhibitors for the treatment of tumours” (ROTTAPHARM BIOTECH S.R.L., priority 2019, dated 2026)", "key": {"[1]": {"biological_target": "human recombinant EP4 receptor (Homo sapiens, UniProt P35408)", "sequence (P35408 whole entry)": "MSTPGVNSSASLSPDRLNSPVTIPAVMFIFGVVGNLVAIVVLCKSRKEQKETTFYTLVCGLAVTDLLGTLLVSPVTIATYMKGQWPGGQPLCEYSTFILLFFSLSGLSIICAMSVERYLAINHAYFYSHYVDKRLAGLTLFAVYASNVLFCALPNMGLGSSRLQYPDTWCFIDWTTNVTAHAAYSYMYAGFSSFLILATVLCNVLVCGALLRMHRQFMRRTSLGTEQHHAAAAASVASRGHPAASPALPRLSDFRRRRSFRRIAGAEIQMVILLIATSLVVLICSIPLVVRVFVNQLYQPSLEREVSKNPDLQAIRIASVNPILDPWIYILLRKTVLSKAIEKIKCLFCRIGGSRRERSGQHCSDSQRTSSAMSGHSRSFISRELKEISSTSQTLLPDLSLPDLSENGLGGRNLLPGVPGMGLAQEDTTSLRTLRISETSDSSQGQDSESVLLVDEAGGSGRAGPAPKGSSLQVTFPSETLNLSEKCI", "assay": "[3H]-PGE2 specific binding on human recombinant EP4 receptor (HEK293 membranes)", "description": "Cell membranes were prepared from HEK293 cell line (Human Embryonic Kidney 293) stably overexpressing human recombinant EP4 receptor. Cells grow adherent in DMEM with Glutamax | containing 10% FBS at 37° C. with 5% CO2. For membranes preparation, culture medium was aspirated from 150 cm^2 flasks in which cells were seeded. Cell monolayers were washed with 10 ml of hypotonic lysis buffer (TRIS 5 mM+EDTA 5 mM-pH 7.4), then cells were detached and lysed with the same buffer and by mechanical scraping. Lysates were centrifuged at 40000×g at 4° C. for 22 min. Pellets were stored at −80° C. until the use.\n[3H]-Prostaglandin E2 ([3H]-PGE2) binding assays were performed in 10 mM MES-KOH buffer pH6, containing 10 mM MgCl2 and 1 mM CaCl2. Ten microgram of protein from membrane fractions are incubated in a total volume of 0.1 ml with 1 nM [3H]-PGE2. In order to determine the total binding or the non specific binding, 1% DMSO or 1 μM PGE2 were added to reaction mixtures, respectively. The specific binding represented >85% of total binding. In competition curves, the diluent was substituted by the test compounds (8 concentration spanning at least 2 order of magnitude; points in duplicates). In an independent series of experiments, competition curves of the same compounds were performed in the presence of Bovine Serum Albumin 0.5%. Incubation was carried out in a 96 multiwell plate for 90 min at room temperature, prior to separation of the bound and free radioligand by rapid filtration on glass fiber filters (Unifilter GFB96, PerkinElmer Inc) pre-soaked in 0.3% polyethyleneimine. Filters were washed with ice cold buffer pH 7.4 (50 mM HEPES, NaCl 500 mM, BSA 0.1%), dried for 30 minutes at 30° C. and then 0.1 ml of MICROSCINT-20 (PerkinElmer Inc) were added. The residual [3H]-PGE2 binding was determined by solid scintillation counter (TopCount, PerkinElmer Inc), after at least 1 hour of stabilization. Results of the competition curves were expressed as IC50 and the corresponding Ki were calculated according to the Chang-Prousoff equation. Finally the Ki value was transformed in pKi (the negative log of Ki)."}, "[2]": {"system": "CT26 cancer cell tumours", "assay": "CT26 syngeneic model of mouse colorectal cancer in Balb/c mice", "format": "in vivo", "settings": "compounds 30 mg/kg oral daily day 7-23; anti PD-1 i.p. 20 mg/kg day 8, 10 mg/kg days 13, 19, 22", "description": "Male Balb/c mice 4-6 weeks old were housed five per cage in a temperature and humidity controlled room with a 12h/12h light/dark cycle. Throughout the experiment the animals had free access to food and water. The Balb/c mice were randomly divided into 6 groups (n=15 in each group): vehicle, Compound 1, Compound 2, anti PD-1, Compound 1+anti PD-1, Compound 2+anti PD-1 group.\nCT26 cells were purchased from ATCC and cultured in Dulbecco's Modified Eagle's Medium (DMEM; ThermoFisher Scientific) supplemented with 10% fetal bovine serum (FBS; Sigma Aldrich) at 37° C. in an incubator with 5% CO2. Cells were sub-cultured twice a week until the number of cells needed for inoculation was obtained.\nOn the day of transplantation (day 0) logarithmic growing phase cells were harvested, diluted in PBS and 10^6 cells in 0.2 ml of PBS were subcutaneously inoculated into the lateral abdominal region of each mouse using a 26G syringe.\nOn day 7 after inoculation the mice were randomized into the 6 treatment groups each of 15 animals receiving respectively vehicle, Compound 1, Compound 2, anti PD-1 and the combination therapies. […]\nTumour sizes (mm^3) were evaluated twice a week by using a digital caliper. The tumour volumes were calculated measuring the tumour lengths along the major and minor axis and using the formula: Volume=[[…]]/2."}}}
{"smiles": "O=C([O-])c1ccc(C2(NC(=O)[C@H]3CCCCN3Cc3ccc(C(F)(F)F)cc3)CC2)cc1.[Na+]", "note": "[Compound 2, (R)-4-(1-(1-(4-(trifluoromethyl)benzyl)piperidine-2-carboxamido)cyclopropyl)benzoic acid, Sodium salt]", "values": [{"measurement": "Ki", "setting": "[1]; BSA 0.5%", "result": 200, "unit": "nM"}, {"measurement": "lower affinity in the presence of proteins (BSA)", "setting": "[1]; BSA 0.5% vs none", "result": 6, "unit": "fold"}, {"measurement": "Ki", "setting": "[1]; None (absence of BSA)", "result": 31.6, "unit": "nM"}, {"measurement": "effect on tumour growth (tumour volume)", "setting": "[2]", "result": "only showed a slight impairment of tumour growth"}]}
